Measured values from paper PMC6387142, “Multi-Residue Method for the Analysis of Stilbene Estrogens in Milk” (International Journal of Molecular Sciences, 2019).

Molecular target: T1, estrogen receptor α ligand binding domain (ER-LBD) (Homo sapiens, UniProt P03372)
T1 construct: gene ESR1
T1 sequence (P03372 311-547 limits assumed): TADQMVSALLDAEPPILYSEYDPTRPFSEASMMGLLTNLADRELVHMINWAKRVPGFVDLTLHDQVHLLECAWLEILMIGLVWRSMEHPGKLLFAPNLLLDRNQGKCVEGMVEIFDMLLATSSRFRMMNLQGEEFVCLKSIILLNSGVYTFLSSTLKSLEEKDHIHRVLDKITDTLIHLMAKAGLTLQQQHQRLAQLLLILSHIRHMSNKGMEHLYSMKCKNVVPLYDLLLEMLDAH
Test: competitive fluorescence polarization, displacement of coumestrol from purified ER-LBD

SMILES: C/C=C(/C(=C/C)c1ccc(O)cc1)c1ccc(O)cc1 [dienestrol]
- IC50: 12.9 nM

SMILES: CC[C@H](c1ccc(O)cc1)[C@@H](CC)c1ccc(O)cc1 [hexestrol]
- IC50: 9.27 nM
